Reference: patent US20210356447A1, “EFFICACY EVALUATION METHOD OF DRUG FOR REVERSING TUMOR MULTIDRUG RESISTANCE” (JINAN UNIVERSITY, priority 2018, published 2021)

Tested on: Liver cancer HepG2/ADR tumor-transplanted nude mouse model
Experiment: Callback rate of serum and urine metabolic markers (targeted metabonomics, LC-MS/MS) in drug-resistant liver cancer nude mouse model
Type: in vivo, nude mice (nu/nu-BALB/c)
[1] = serum metabolic marker, 3 mg/kg, 0.2 ml tail vein injection once every three days, seven times, HepG2/ADR nude mice
[2] = urine metabolic marker, 3 mg/kg, 0.2 ml tail vein injection once every three days, seven times, HepG2/ADR nude mice

Protocol: Liver cancer HepG2/ADR tumor-transplanted nude mouse models were firstly established and divided into four groups with 30 mice in each group, and after one week of successful establishment of the model, the mice were administered in different methods:
Metabolic markers were quantified by a targeted metabonomics technology, and an efficacy of a drug for reversing tumor multidrug resistance to be evaluated was evaluated by a concentration of each metabolic marker.
Cell transplanting: ten nude mice without thymus, including five male mice and five female mice, were selected, after 10-day adaptation period, 0.2 ml of HepG2/ADR cells (cell concentration: 6×10^7 cells/ml) were subcutaneously injected into each nude mouse with a 23G sterile needle, and in order to prevent tumor cells from being destroyed and matrix gel from being solidified in the period, the injection should be completed as soon as possible. Before injection, the needle was shaken left and right to form an expanded subcutaneous cyst (because if the injection was performed to a specific area by not shaking the needle, the mixture could form a large cell mass, and ineffective perfusion of nutrients in a core of the mass into the cells could result in subsequent growth defects), and when the needle was taken out, the injector was rotated to prevent leakage of cell sap. After subcutaneous injection, the matrix gel was irreversibly solidified to form a red bulge, about 10 days later, the solidified matrix gel was eliminated, and the tumor cells were successfully inoculated, and after a tumor mass grew for three weeks, nude mice with the tumor of the same size (about 7 mm in diameter) were selected. The subcutaneous tumor mass was taken out, a peripheral part of the tumor mass was divided into small tumor masses of 2×2×2 mm, after the nude mice (nu/nu-BALB/c, half male nude mice and half female nude mice at six weeks old, n=30) were anesthetized with isoflurane, the small tumor masses were subcutaneously implanted into shoulders of the nude mice to make the tumor masses of liver cancer model mice similar in size and shape, thus reducing experimental errors caused by different tumor mass sizes. After successful transplantation, growth statuses of the model nude mice were observed and recorded every day, weights of the nude mice were recorded every two days, and tumor sizes (length and width) were measured with a vernier caliper.
Healthy group: only normal saline was administrated to 30 healthy nude mice without being inoculated with any tumor cells once every three days for a total of seven times, with a dose of 0.2 ml each time by an administration method of tail vein injection.
Negative control group: only normal saline was administrated to 30 liver cancer HepG2/ADR tumor-transplanted nude mouse models once every three days for a total of seven times, with a dose of 0.2 ml each time by an administration method of tail vein injection.
Mass spectra of standard substances of a-linolenic acid, 3-methylglutaric acid, 17-hydroxystearic acid, xanthurenic acid, indole-2-carboxylic acid and 3-furoic acid were measured to determine mass-spectrometric detection conditions of each metabolic marker.
A series of linear concentration samples of the standard substance of each metabolic marker were respectively measured using the detection conditions above to obtain a relationship between a peak area of a characteristic fragment particle peak and a concentration of each metabolic marker, and linear regression was performed to obtain a linear regression equation.

Row | SMILES | Callback rate, 3-methylglutaric acid [1] [%] | Callback rate, A-linolenic acid [1] [%] | Callback rate, 3-furoic acid [2] [%] | Callback rate, Xanthurenic acid [2] [%] | Callback rate, indole-2-carboxylic acid [2] [%] | effect of reversing tumor drug resistance, judged from the callback rates (result in words, comparison of groups in HepG2/ADR nude mice)
1 | COc1cccc2c1C(=O)c1c(O)c3c(c(O)c1C2=O)C[C@@](O)(C(=O)CO)C[C@@H]3O[C@H]1C[C@H](N)[C@H](O)[C@H](C)O1 [Positive control group, doxorubicin] | 13.69 | 17.56 | 12.30 | 19.08 | 12.73 | 
2 | O=c1ccc2cc3ccoc3cc2o1 [psoralen] |  |  |  |  |  | really has the effect of reversing tumor drug resistance
